Results from patent publication US11950594B2, “Methods and compositions for inhibiting formation of biofilms” (INSTITUTE OF MICROBIOLOGY, CHINESE ACADEMY OF SCIENCES, priority 2019, dated 2024).

How the values were obtained:
[1] = test system: Pseudomonas aeruginosa PAO1 biofilm; experiment: Biofilm assay (96-well PVC plate, crystal violet); format: cell-based
Experimental: 1% inoculation amount of the bacterial solution cultured overnight was inoculated into 100 μL Jensen liquid medium. Different equal amounts of bacteria solution with C1 to C12, respectively, or without any additional substance were cultured in a 96-well polyvinyl chloride (PVC) plate (costar) overnight at 30° C. without agitation.
The bacterial biomass adsorbed on the 96-well PVC plate was detected by a crystal violet method, and steps were described as below. (1) The non-attached bacteria were removed using a pipettor, then the wells were gently rinsed with normal saline for 3 times. (2) A volume of 120 μL 0.1% crystal violet solution was added to stain the firmly attached bacterial cells in each well, which then staying static at room temperature for 30 min. (3) The PVC plate was taken out, the crystal violet solution was removed with a pipettor, and the non-attached crystal violet solution was washed with normal saline. (4) The crystal violet attached onto the PVC plate was dissolved with 200 μL of 30% acetic acid solution. The OD value of the acetic acid solution in each well was measured at 560 nm with a spectrophotometer.

Pseudomonas aeruginosa = experiment: Virulence in cabbage model; format: in vivo; details: C9 5 mM, 37° C., 36 hours, CFU
Experimental: The PAO1 culture inoculated with the coumarin-chalcone compound C9 (5 mM) was injected into a cabbage model and incubated at 37° C. for 36 hours. Then the colony phenotype was observed and colony-forming units (CFU) were calculated.
In the embodiment, the cabbage model was used to carry out the vivo experiment in vivo to study whether the coumarin-chalcone compound C9 affects the virulence of Pseudomonas aeruginosa. FIG. 9 is a schematic diagram illustrating virulences of bacteria of a blank group, a control group, and an experimental group treated with a coumarin-chalcone compound C9.

[2] = test system: Psl polysaccharide production; experiment: Psl immunoblot analysis; format: cell-based, Pseudomonas aeruginosa; details: C9 5 mM, Jensen media, 37° C., 24 hours
Experimental: Pseudomonas aeruginosa PAO1 was inoculated in Jensen media at 37° C. for 24 hours with shaking and treated with the coumarin-chalcone compound C9 (5 mM) or DMSO (5 mM), respectively. OD600 values of the overnight cultured bacterial solutions were measured, and a bacterial solution with an OD (optical density) of 10 was collected. The bacterial solution with the OD of 10 was a bacterial solution whose OD600 was 2 and the collected volume was 5 mL. The bacterial solution was centrifuged at 13000 r/min for 5 min and the corresponding supernatant was discarded. The obtained precipitate was dissolved in 100 μL of 0.5 M EDTA. Then the EDTA solution was boiled at 100° C. for 5 min and centrifuged, and the precipitate was discarded. The obtained supernatant was treated with proteinase K (final concentration, 0.5 mg/mL) for 1 h at 60° C., followed by inactivation of proteinase K for 30 min at 80° C. to obtain a polysaccharide extract. A volume of 3 μL of polysaccharide extract was spotted onto a nitrocellulose membrane and dried. After washing with TBST for 3 times, a blocking was done with 10% skimmed milk at room temperature for 1 h. The anti-Psl antibody (i.e., a primary antibody) (1:25,000 dilution) was added and then solution was treated at 25° C. for 1 h. […] Western blot data was quantitatively analyzed using Image Lab™ 5.1 software.

pslA::lacZ = pslA::lacZ transcription fusion (β-galactosidase activity); format: cell-based, Pseudomonas aeruginosa; details: FIG. 5
Experimental: 1% inoculation amount of overnight cultured Pseudomonas aeruginosa (pslA::lacZ mutant strain) were respectively inoculated in Jensen media with and without coumarin-chalcone compounds C1-C12, and incubated at 37° C. until OD600 reached to 0.5. Bacteria from 1.5 ml culture aliquots were resuspended in 200 μl Z-buffer and frozen/thawed three times to lyses bacteria. Cell lysates were assayed for both β-galactosidase activities as well as for total proteins by BCA assay (Pierce, USA). All β-galactosidase activity units were normalized by total protein per ml aliquot.
The units of β-galactosidase activity may be determined according to Equation (1) as follows: Miller units=1000×(OD420−1.7×OD550)/(t×V×OD600) (1) where t denotes a time (unit: min), V denotes the volume (unit: mL).
About 500 bp of DNA fragments upstream of ATG start codon of pslA gene were cloned into a polyclonal site of mini-CTX lacZ vector (note that the selected promoter fragment cannot affect the frameshift mutation). A recombinant plasmid (e.g., pTH2) was transferred into Escherichia coli S17-1λ pir. Then activated PAO1 was inoculated into 5 mL of LBNS medium, and S17-1/pTH2 strain was inoculated into 5 mL of LB medium with tetracycline (Tet) ([…]), and both cultured overnight at 37° C. with 200 rpm. […]

## COc1cccc(/C=C/C(=O)c2cc3ccccc3oc2=O)c1 [Compound C9]
[1]; C9 in a range of 1 mM to 5 mM
  formation of Pseudomonas aeruginosa biofilm: significantly inhibited
[1]; FIG. 1, overnight at 30° C., Jensen medium
  reduction of the contents of Pseudomonas aeruginosa PAO1 biofilm: 70%
[1]; Pseudomonas aeruginosa, PAO1, concentration of C9 5 mM, read-out: inhibition rate of biofilm
  inhibition at 5000 µM: 70%
Pseudomonas aeruginosa
  reduction of virulence of Pseudomonas aeruginosa in the cabbage model: 60%
[2]
  reduction of Psl production: 60%
pslA::lacZ
  production of Psl at the transcription level (pslA::lacZ): affected the production of Psl at the transcription level
